This passage reports MIC, IC50 and selectivity ratio results from ChEMBL document CHEMBL3351769, “Poly-guanidinoethylphenylethers organised around a benzene ring: synthesis and evaluation of their antibacterial and cytotoxic properties” (Bioorg Med Chem Lett, 2014).

The subject of one data set is Escherichia coli. Kind of data set: Antimicrobial activity against Escherichia coli ATCC 25922 by broth microdilution method. The format is functional.
The next data set deals with Pseudomonas aeruginosa. Description: Antimicrobial activity against Pseudomonas aeruginosa ATCC 27853 by broth microdilution method. It is filed as functional.
Data set [1] has as its system Staphylococcus aureus. Description: Antimicrobial activity against Staphylococcus aureus ATCC 25923 by broth microdilution method. The format is functional.
The test system of data set [2] is Staphylococcus aureus. Kind of data set: Antimicrobial activity against Staphylococcus aureus ATCC 29213 by broth microdilution method. It is filed as functional.
Another data set has as its system Enterococcus faecalis. Kind of data set: Antimicrobial activity against Enterococcus faecalis ATCC 29212 by broth microdilution method. The format is functional.
The test system of data set [3] is MRC5. Kind of data set: Cytotoxicity against human MRC5 cells after 24 hrs by MTT assay. The format is cell-based. The conditions noted are these: MRC5, 24 h.
Data set [4] deals with MRC5. Description: Cytotoxicity against human MRC5 cells after 48 hrs by MTT assay. The format is cell-based. The conditions noted are these: MRC5, 48 h.
A short description of data set [5]: Selectivity index, ratio of IC50 for human MRC5 cells after 24 hrs to MIC for Escherichia coli ATCC 25922. It is filed as toxicity, cell-based. Particulars: read-out: Selectivity Index.
The nature of data set [6]: Selectivity index, ratio of IC50 for human MRC5 cells after 24 hrs to MIC for Pseudomonas aeruginosa ATCC 27853. It is filed as toxicity, cell-based. The conditions noted are these: read-out: Selectivity Index.
The nature of data set [7]: Selectivity index, ratio of IC50 for human MRC5 cells after 24 hrs to MIC for Staphylococcus aureus ATCC 25923. It is filed as toxicity, cell-based. The conditions noted are these: read-out: Selectivity Index.
Data set [8] in a line: Selectivity index, ratio of IC50 for human MRC5 cells after 24 hrs to MIC for Staphylococcus aureus ATCC 29213. The conditions noted are these: read-out: Selectivity Index. The format is toxicity, cell-based.
The nature of data set [9]: Selectivity index, ratio of IC50 for human MRC5 cells after 24 hrs to MIC for Enterococcus faecalis ATCC 29212. The format is toxicity, cell-based. Particulars: read-out: Selectivity Index.

Consider `N=C(N)NCCc1ccc(OCc2ccccc2)cc1.O=C(O)C(F)(F)F`, for which the MIC in the data set on Escherichia coli turned out to be 32 µg/mL; against Pseudomonas aeruginosa it was 64 µg/mL; with Staphylococcus aureus [1], 16 µg/mL; against Staphylococcus aureus [2] it was 8 µg/mL; with Enterococcus faecalis, 128 µg/mL. Besides, the IC50 in the data set with MRC5 [3] is 26 µg/mL; with MRC5 [4], 19 µg/mL. Further, the selectivity ratio at 24 h in data set [5] is 0.8; in data set [6], 0.4; in data set [7] it was 1.5; in data set [8] it was 3; in [9], 0.2.

As for `N=C(N)NCCc1ccc(OCc2ccccc2COc2ccc(CCNC(=N)N)cc2)cc1.O=C(O)C(F)(F)F`, the minimum inhibitory concentration (MIC) with Escherichia coli is 8 µg/mL; with Pseudomonas aeruginosa it was 16 µg/mL; in the data set on Staphylococcus aureus [1] it was less than 1 µg/mL; against Staphylococcus aureus [2] it was less than 1 µg/mL; in the data set on Enterococcus faecalis it was 8 µg/mL. Further, the half-maximal inhibitory concentration (IC50) was 100 µg/mL in the data set on MRC5 [3] and 41 µg/mL in the data set on MRC5 [4]. The selectivity ratio at 24 h is 12.5 in data set [5]; 6.2 in data set [6]; more than 100 in data set [7]; more than 100 in [8]; 12.5 in data set [9].

For `N=C(N)NCCc1ccc(OCc2cccc(COc3ccc(CCNC(=N)N)cc3)c2)cc1.O=C(O)C(F)(F)F`, the MIC is 16 µg/mL against Escherichia coli; 32 µg/mL against Pseudomonas aeruginosa; less than 1 µg/mL with Staphylococcus aureus [1]; 2 µg/mL in the data set with Staphylococcus aureus [2]; 16 µg/mL with Enterococcus faecalis. Further, the results for the concentration for half-maximal inhibition (IC50) with MRC5 [3] and with MRC5 [4] were 34.5 µg/mL and 29.7 µg/mL, respectively. Besides, the selectivity ratio at 24 h in data set [5] was 2; in [6] it was 1; in data set [7] it was more than 34.5; in [8], 17; in data set [9], 2.

With `N=C(N)NCCc1ccc(OCc2ccc(COc3ccc(CCNC(=N)N)cc3)cc2)cc1.O=C(O)C(F)(F)F`, the MIC in the data set on Escherichia coli is 4 µg/mL; against Pseudomonas aeruginosa, 4 µg/mL; in the data set on Staphylococcus aureus [1], 1 µg/mL; against Staphylococcus aureus [2] it was 1 µg/mL; against Enterococcus faecalis it was 2 µg/mL. Moreover, the IC50 in the data set on MRC5 [3] is 21 µg/mL; in the data set on MRC5 [4] it was 12.7 µg/mL. Also, the selectivity ratio at 24 h worked out at 5.25 in data set [5]; 5.25 in data set [6]; 21 in data set [7]; 21 in [8]; 10.5 in data set [9].

Consider `N=C(N)NCCc1ccc(OCc2cc(COc3ccc(CCNC(=N)N)cc3)cc(COc3ccc(CCNC(=N)N)cc3)c2)cc1.O=C(O)C(F)(F)F`, for which the MIC was less than 1 µg/mL in the data set with Escherichia coli; 16 µg/mL in the data set on Pseudomonas aeruginosa; less than 1 µg/mL with Staphylococcus aureus [1]; less than 1 µg/mL in the data set on Staphylococcus aureus [2]; 8 µg/mL with Enterococcus faecalis. The IC50 stood at 39.5 µg/mL in the data set with MRC5 [3] and 30 µg/mL with MRC5 [4]. The selectivity ratio at 24 h in data set [5] was more than 39.5; in data set [6] it was 2.5; in data set [7], more than 39.5; in [8] it was more than 39.5; in data set [9], 5.

For the compound `N=C(N)NCCc1ccc(OCc2cc(COc3ccc(CCNC(=N)N)cc3)c(COc3ccc(CCNC(=N)N)cc3)cc2COc2ccc(CCNC(=N)N)cc2)cc1.O=C(O)C(F)(F)F`, the MIC with Escherichia coli was 4 µg/mL; against Pseudomonas aeruginosa, 8 µg/mL; in the data set with Staphylococcus aureus [1], 2 µg/mL; against Staphylococcus aureus [2], less than 1 µg/mL; in the data set on Enterococcus faecalis, 4 µg/mL. Moreover, the half-inhibitory concentration (IC50) was 49 µg/mL in the data set on MRC5 [3] and 38.5 µg/mL in the data set on MRC5 [4]. The selectivity ratio at 24 h in [5] was 12; in [6], 6; in [7] it was 24.5; in [8], more than 49; in data set [9], 12.2.

For the compound `N=C(N)NCCc1ccc(OCc2c(COc3ccc(CCNC(=N)N)cc3)c(COc3ccc(CCNC(=N)N)cc3)c(COc3ccc(CCNC(=N)N)cc3)c(COc3ccc(CCNC(=N)N)cc3)c2COc2ccc(CCNC(=N)N)cc2)cc1.O=C(O)C(F)(F)F`, the MIC against Escherichia coli came to 16 µg/mL; in the data set on Pseudomonas aeruginosa, 16 µg/mL; with Staphylococcus aureus [1], 8 µg/mL; against Staphylococcus aureus [2], 8 µg/mL; against Enterococcus faecalis, 8 µg/mL. The values for the IC50 in the data set on MRC5 [3] and in the data set on MRC5 [4] were 26 µg/mL and 30 µg/mL, respectively. The selectivity ratio at 24 h turned out to be 1.5 in data set [5]; 1.5 in data set [6]; 3 in data set [7]; 3 in data set [8]; 3 in data set [9].
